Assay results taken from the NIST ThermoML archive (doi:10.1016/j.jct.2008.10.005).
± gives the expanded uncertainty stated by the source.

Legend:
[1] = Molar enthalpy of transition or fusion; settings: Crystal; DSC
[2] = Crystal; DTA

Structure (SMILES)	Molar enthalpy of transition or fusion [1] [kcal/mol]	Normal melting temperature [2] [°C]
Clc1ccccc1Cl [1,2-dichlorobenzene]	2.96 ± 0.203	-17.30 ± 0.53
c1ccc2ccccc2c1 [naphthalene]	4.54 ± 0.215	80.10 ± 0.53
Clc1ccc(Cl)cc1 [1,4-dichlorobenzene]	4.35 ± 0.213	53.00 ± 0.53
Clc1cccc(Cl)c1 [1,3-dichlorobenzene]	3.01 ± 0.203	-24.90 ± 0.53
